In patent US20190183868A1, “FORMULATIONS AND TREATMENTS EMPLOYING HYDROXYPYRIDONATE ACTINIDE/LANTHANIDE DECORPORATION AGENTS” (priority 2016, published 2019):

What was measured:
[1] = Gd-153 decorporation in mice injected with ^153Gd citrate (Example 9); format: in vivo; conditions: for excretion pathway: Gd-153
Protocol: The present example is an evaluation of the metal-removal effectiveness of various molecules, including 3,4,3-LI(1,2-HOPO) and DTPA. The arrangements tested (which compounds, how much, how long pre or post-contamination the compound was administered, etc.) are outlined in Table 9.1.
The results of the various test arrangements in Table 9.1 are detailed in FIGS. 8A-8Q. The data is plotted as a percent of recovered dose (%RD), with whole animal and specific tissue isotope content determine at a unique time point (4 days post metal challenge) while excreta are determined daily until necropsy. […] The almost-exclusively-fecal excretion pathway of 3,4,3-LI(1,2-HOPO) is also remarkably different from that of DTPA (urinary). […] FIGS. 8A-8C depict a general overview of the results. FIG. 8D depicts a comparative analysis of the recovered dose in the body vs excreta. FIGS. 8E-8P depict a break down by tissue type, including brain (FIG. 8E), Thymus (FIG. 8F), heart (FIG. 8G), lungs (FIG. 8H), spleen (FIG. 8I), kidneys (FIG. 8J), abdominal remaining tissue (ART, FIG. 8K), all other soft tissues (SOFT, FIG. 8L), liver (FIG. 8M), and skeleton (SKEL, FIG. 8N). FIGS. 8O and 8P show the total urinary and fecal excretion at the time of necropsy. FIG. 8Q depicts the daily excreta.

[2] = ADME studies with ^14C-labeled 3,4,3-LI(1,2-HOPO) in rats (brain); format: in vivo; conditions: ^14C-labeled ligand; traces in rat brain several days after administration
Excerpt: (§1) This property is particularly relevant to target Gd deposited in the brain.

[3] = Complex stability constant in vitro, Pu(IV); format: binding
Excerpt: (§2) The mechanism of action of 3,4,3-LI(1,2-HOPO) is a chelation mechanism, in which the compound binds the targeted actinide and forms a stable complex that can be eliminated through excretion pathways. Chelation is likely to be clinically efficacious if the affinity of the chelating agent for the targeted actinide metal ion is higher than those of potential biological ligands (such as proteins and bone matrices) and if its affinity for the targeted actinide metal ion is more specific than for essential divalent metal ions. A quantitative tool to predict the efficacy of a chelating agent and confirm its potential for actinide chelation is the determination of the corresponding actinide complex stability constants in vitro. As outlined in Example 2 below, these constants were evaluated for metals such as Pu(IV) (Log β110>41.5) or Cm(III) (Log β110=21.8), and support the chelation mechanism of action by 3,4,3-LI(1,2-HOPO).

[4] = Oral activity: removal of injected Pu after oral administration; format: in vivo; conditions: administered orally after a Pu injection, mice or beagles
Excerpt: (§3) Oral Activity. Both compounds are orally active actinide chelators: when administered orally to mice or beagles after a Pu injection, 3,4,3-LI-1,2-HOPO and 5-LIO-Me-3,2-HOPO can remove up to 80% and 60%, respectively, of the injected Pu.

[5] = Complex stability constant in vitro, Cm(III); format: binding
Excerpt: as §2

[6] = Complex stability constant in vitro, Gd(III); format: binding
Excerpt: as §2

[7] = Delayed parenteral (ip) chelation treatment of mice contaminated iv with ^238Pu-citrate; format: in vivo, Swiss-Webster mice; conditions: for adverse effects at the dose levels used: both studies (delayed and prophylactic treatment); for sustained action beyond 24 hours after treatment: cumulative ^238Pu excretion, FIG. 4; for ^238Pu excretion pathway enhanced by treatment: independent of post-contamination treatment time, FIG. 5; for time by which rates of elimination became slower than in control animals: prompt treatment 1 hour post-contamination; for ^238Pu elimination, total body burden and tissue content versus saline-treated controls: 7 days after treatment
Protocol: (§4) A stock solution of ^238Pu-nitrate in 4 M HNO3 was purchased from Eckert and Ziegler Isotope Products (Valencia, CA, USA) and used to prepare injection solutions. Contamination doses consisted of 0.2 mL aliquots of solutions containing 0.74 kBq (1.16 ng) of ^238Pu in 0.008 M sodium citrate and 0.14 M NaCl, pH 4. The ligands 3,4,3-LI(1,2-HOPO) and 5-LIO(Me-3,2-HOPO) were prepared by Synthetech, Inc. (Albany, Oreg., USA) and Albany Molecular Research, Inc. (Albany, NY, USA), respectively, as described previously. DTPA was obtained from Sigma-Aldrich (St. Louis, Mo., USA) and was formulated as Ca-DTPA using CaCO3 and NaOH, similarly to the formerly available drug product commercialized by Hameln Pharmaceuticals gmbh (Hameln, Germany). Ligand solutions were prepared such that the selected dosages ([…] for Ca-DTPA, 30 or 100 mol/kg for 3,4,3-LI(1,2-HOPO), and 100 or 200 mol/kg for 5-LIO(Me-3,2-HOPO)) were contained in 0.5 mL of 0.14 M NaCl, with the pH adjusted to 7.4-8.4 with 1 N NaOH. All solutions were filter-sterilized (0.22 μm) prior to administration. The concentration of each solution was verified by high-performance liquid chromatography, following modified published methods.
(§5) All procedures and protocols used in the described in vivo studies were reviewed and approved by the Institutional Animal Care and Use Committee of Lawrence Berkeley National Laboratory and were performed in AAALAC accredited facilities. The animals used were young adult (86±6 days old for delayed treatment experiment and 90±3 days old for prophylactic treatment experiment) female (30.7±4.0 g for delayed treatment experiment and 30.8±1.6 g for prophylactic treatment experiment) Swiss-Webster mice (Simonsen Laboratories, Gilroy, Calif., USA). Gross body and tissue compositions, plasma, extracellular fluid, and red cell volumes of the whole body, major tissues and organs of these mice (intact or bled 25 to 40% of their total blood volume) have been determined previously. Mice were kept under a 12-hour light cycle with controlled temperature (18-22° C.) and relative humidity (30-70%), and were given water and food ad libitum. Each group of mice was housed together in a plastic stock cage lined with a 0.5 cm layer of highly absorbent low-ash pelleted cellulose bedding (ALPHA-dri®) for separation of urine and feces. Intravenous (iv) injections into a warmed lateral tail vein, intraperitoneal (ip) injections, oral administrations (po, through gastric intubation) and euthanasia were performed under isoflurane anesthesia. Treatment dose volumes were adjusted based on the weight of the mouse, with a 0.5 mL volume corresponding to a 35 g mouse. To probe the effect of delayed treatment, groups of five mice were injected iv with a single dose of ^238Pu-citrate, and ligand or control saline solutions were administered ip once at the following post-contamination treatment times: 1 h, 5 h, 16 h, 24 h, 3 d, 7 d. Excreta were collected daily for 7 days. Animals were euthanized 7 days after treatment. To probe the effect of prophylactic treatment, groups of five mice were first administered ligand or control saline solutions ip or po once at the following pre-contamination treatment times: −1 h, −6 h, −16 h, −24 h, −30 h, −40 h, −48 h. Mice were then injected iv with a single dose of ^238Pu-citrate and excreta were collected daily for 3 days. Animals were euthanized 3 days (72 h) after contamination. Mice were euthanized by cervical dislocation over their respective cage to collect the urine expelled at death, and immediately wrapped in plastic and frozen for later dissection.
(§6) After partial thawing of the frozen mice, livers and kidneys were dissected, and the abdominal tissue remainder (ATR, which includes intact gastrointestinal (GI) tract, reproductive organs, spleen, urinary bladder, and abdominal fat) was removed. The livers, kidneys, ATR, and partially eviscerated carcasses were managed as individual samples. […]

[8] = Pharmacokinetics and biodistribution of ^14C-labeled ligand in mice; format: in vivo, Swiss-Webster mouse; conditions: for metabolic degradation: ^14C-labeled ligands
Excerpt: The pharmacokinetics and biodistribution profile of the ^14C-labeled 3,4,3-LI(1,2-HOPO) were recently characterized in the young Swiss-Webster mouse model. After parenteral injection, the radiolabeled compound was rapidly distributed into high vascular tissues, and highest kidney and liver concentrations were seen as early as 1-hour post-administration. However, those high concentrations […] and more strikingly, about 40% of the administered dose was still in various tissues and organs after 24 hours. […] Nevertheless, retention of the ligand was significant within the first 6 hours after oral administration, which also corroborates the shorter but consequent prophylactic activity of 3,4,3-LI(1,2-HOPO) after oral administration.
Those differences have been discussed previously and are presumably based on respective ligand and actinide-complex physico-chemical parameters such as solubility, lipophilicity, and ionization constants. […] It is therefore likely that the radionuclide excretion path is ligand-driven.
as §3

[9] = Decorporation of actinide ions in animal studies, potency versus DTPA; format: in vivo
Excerpt: as §1

[10] = Clearing circulating or newly deposited Pu from mouse tissues compared with CaNa3-DTPA; format: in vivo
Excerpt: For example, the efficiency of 3,4,3-LI-1,2-HOPO for clearing circulating Pu from mouse tissues ranges from 100 times (skeleton) to 240 times (soft tissues) that of CaNa3-DTPA in five different protocols. In addition, the optimal activity dose of 3,4,3-LI-1,2-HOPO for removing newly deposited Pu from mice is 2.5% of the dose of CaNa3-DTPA used clinically. The tetradentate 5-LIO-Me-3,2-HOPO has potential therapeutic value for Pu, U, Am and Np, and its efficiency for clearing circulating Pu from mouse tissues ranges from 5 times (skeleton) to 15 times (liver) that of CaNa3-DTPA.

[11] = Prophylactic parenteral or oral chelation treatment of mice before iv ^238Pu-citrate contamination; format: in vivo, Swiss-Webster mice; conditions: for prophylactic window with significant reductions in total body, skeleton and liver ^238Pu: oral administration, versus saline controls; for prophylactic window with significant reduction of body and tissue ^238Pu burden: parenteral (ip) administration prior to contamination
Protocol: as §4, §5, §6

[12] = single ip dose 1 hour to 16 hours post-contamination

O=C(NCCCN(CCCCN(CCCNC(=O)c1cccc(=O)n1O)C(=O)c1cccc(=O)n1O)C(=O)c1cccc(=O)n1O)c1cccc(=O)n1O [3,4,3-LI(1,2-HOPO)]
Gd-153 removal ([1]; 100 μmol/kg ip, 48 hours post-exposure): extremely efficient | Gd-153 decorporation ([1]; 100 μmol/kg ip, up to 24 hours prophylactically): high and almost quantitative level of decorporation | excretion pathway [1]: almost-exclusively-fecal | Gd-153 removal from kidneys ([1]; compared with DTPA): more efficient than DTPA | Gd-153 removal from the skeleton ([1]; mouse, in vivo): ability at removing Gd-153 from the skeleton | blood-brain barrier penetration [2]: can penetrate the blood-brain barrier | Log β110 [3]: > 41.5 | injected Pu removed [4]: up to 80% | Log β110 [5]: 21.8 | Log β110 [6]: 20.5 | ^238Pu skeleton content ([7]; all tested treatment time points): significantly reduced | adverse effects at the dose levels used [7]: did not result in any discernable adverse effects | sustained action beyond 24 hours after treatment [7]: visible throughout the seven-day excreta collection period | ^238Pu excretion pathway enhanced by treatment [7]: primarily through the biliary pathway | time by which rates of elimination became slower than in control animals [7]: 3 days post-treatment | decrease in ^238Pu content versus DTPA treatment [7, 12]: significantly better than those observed after DTPA treatment | ^238Pu elimination, total body burden and tissue content versus saline-treated controls [7, 12]: significant increases in ^238Pu elimination rates | ^238Pu elimination ([7]; treatment delayed 24 hours to 7 days after contamination): significantly enhanced | metabolic degradation [8]: stable to metabolic degradation | administered dose still in various tissues and organs ([8]; after 24 hours, parenteral injection, ^14C-labeled): about 40% | main mode of elimination of the ligand ([8]; mice, parenteral or oral administration, ^14C-labeled): biliary pathway is the main mode of elimination | time of highest kidney and liver concentrations ([8]; post-administration, parenteral injection, ^14C-labeled): 1 h | potency relative to DTPA at decorporating actinide ions [9]: up to 30 times | optimal activity dose for removing newly deposited Pu, as share of the CaNa3-DTPA dose used clinically ([10]; mice): 2.5% | efficiency for clearing circulating Pu relative to CaNa3-DTPA ([10]; mouse skeleton): 100 times | efficiency for clearing circulating Pu relative to CaNa3-DTPA ([10]; mouse soft tissues): 240 times | ^238Pu urinary output relative to fecal output ([11]; 30 μmol/kg ip 1 hour prior to contamination): 3 fold | ^238Pu excreted within 3 days ([11]; ip injection 48 hours before contamination): up to 50% | prophylactic window with significant reductions in total body, skeleton and liver ^238Pu [11]: 6 h | prophylactic window with significant reduction of body and tissue ^238Pu burden [11]: ≥ 48 h | full body, skeleton, liver, soft tissue and kidney ^238Pu content versus saline- and DTPA-treated groups ([11]; prophylactic ip treatment): large significant reductions | oral bioavailability ([11]; reflected in lack of efficacy for earlier oral treatments): low

Cn1ccc(C(=O)NCCOCCNC(=O)c2ccn(C)c(=O)c2O)c(O)c1=O [5-LIO(Me-3,2-HOPO)]
injected Pu removed [4]: ≤ 60% | adverse effects at the dose levels used [7]: did not result in any discernable adverse effects | sustained action beyond 24 hours after treatment [7]: did not display significant sustained action | ^238Pu excretion pathway enhanced by treatment [7]: primarily through the biliary pathway | time by which rates of elimination became slower than in control animals [7]: 2 days post-treatment | ^238Pu elimination, total body burden and tissue content versus saline-treated controls [7, 12]: significant increases in ^238Pu elimination rates | metabolic degradation [8]: stable to metabolic degradation | efficiency for clearing circulating Pu relative to CaNa3-DTPA ([10]; mouse liver): 15 times | efficiency for clearing circulating Pu relative to CaNa3-DTPA ([10]; mouse skeleton): 5 times | prophylactic window with significant reductions in total body, skeleton and liver ^238Pu [11]: 6 h | prophylactic window with significant reduction of body and tissue ^238Pu burden [11]: 1 h

diethylenetriamine pentaacetic acid [DTPA, reference compound]
excretion pathway [1]: urinary | sustained action beyond 24 hours after treatment [7]: visible over several days after treatment | ^238Pu excretion pathway enhanced by treatment [7]: enhanced urinary excretion | prophylactic window with significant reduction of body and tissue ^238Pu burden [11]: 6 h
